Assay results as given in ChEMBL document CHEMBL1148517, “A new class of selective, non-basic 5-HT2A receptor antagonists” (Bioorg Med Chem Lett, 2006).

Key:
[1] = target: T1, 5-hydroxytryptamine receptor 2C (Homo sapiens, UniProt P28335); experiment: Binding affinity to human 5HT2C
T1 sequence (P28335 whole entry): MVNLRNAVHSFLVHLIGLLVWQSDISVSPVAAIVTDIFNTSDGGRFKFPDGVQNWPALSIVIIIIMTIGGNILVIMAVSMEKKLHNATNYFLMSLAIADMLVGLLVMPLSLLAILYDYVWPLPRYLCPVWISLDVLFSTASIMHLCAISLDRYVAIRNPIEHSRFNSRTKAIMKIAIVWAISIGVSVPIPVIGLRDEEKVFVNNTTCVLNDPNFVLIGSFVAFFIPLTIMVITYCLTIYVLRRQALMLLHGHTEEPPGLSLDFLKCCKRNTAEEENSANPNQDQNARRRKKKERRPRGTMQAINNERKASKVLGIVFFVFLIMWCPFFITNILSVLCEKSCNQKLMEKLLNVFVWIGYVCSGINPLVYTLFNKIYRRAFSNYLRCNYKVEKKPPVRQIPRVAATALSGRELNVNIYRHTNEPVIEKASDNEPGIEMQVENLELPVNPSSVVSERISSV

[2] = target: Voltage-gated inwardly rectifying potassium channel KCNH2 (Homo sapiens, UniProt Q12809); experiment: Binding affinity to human IKr
Chain of Voltage-gated inwardly rectifying potassium channel KCNH2 (Q12809 whole entry): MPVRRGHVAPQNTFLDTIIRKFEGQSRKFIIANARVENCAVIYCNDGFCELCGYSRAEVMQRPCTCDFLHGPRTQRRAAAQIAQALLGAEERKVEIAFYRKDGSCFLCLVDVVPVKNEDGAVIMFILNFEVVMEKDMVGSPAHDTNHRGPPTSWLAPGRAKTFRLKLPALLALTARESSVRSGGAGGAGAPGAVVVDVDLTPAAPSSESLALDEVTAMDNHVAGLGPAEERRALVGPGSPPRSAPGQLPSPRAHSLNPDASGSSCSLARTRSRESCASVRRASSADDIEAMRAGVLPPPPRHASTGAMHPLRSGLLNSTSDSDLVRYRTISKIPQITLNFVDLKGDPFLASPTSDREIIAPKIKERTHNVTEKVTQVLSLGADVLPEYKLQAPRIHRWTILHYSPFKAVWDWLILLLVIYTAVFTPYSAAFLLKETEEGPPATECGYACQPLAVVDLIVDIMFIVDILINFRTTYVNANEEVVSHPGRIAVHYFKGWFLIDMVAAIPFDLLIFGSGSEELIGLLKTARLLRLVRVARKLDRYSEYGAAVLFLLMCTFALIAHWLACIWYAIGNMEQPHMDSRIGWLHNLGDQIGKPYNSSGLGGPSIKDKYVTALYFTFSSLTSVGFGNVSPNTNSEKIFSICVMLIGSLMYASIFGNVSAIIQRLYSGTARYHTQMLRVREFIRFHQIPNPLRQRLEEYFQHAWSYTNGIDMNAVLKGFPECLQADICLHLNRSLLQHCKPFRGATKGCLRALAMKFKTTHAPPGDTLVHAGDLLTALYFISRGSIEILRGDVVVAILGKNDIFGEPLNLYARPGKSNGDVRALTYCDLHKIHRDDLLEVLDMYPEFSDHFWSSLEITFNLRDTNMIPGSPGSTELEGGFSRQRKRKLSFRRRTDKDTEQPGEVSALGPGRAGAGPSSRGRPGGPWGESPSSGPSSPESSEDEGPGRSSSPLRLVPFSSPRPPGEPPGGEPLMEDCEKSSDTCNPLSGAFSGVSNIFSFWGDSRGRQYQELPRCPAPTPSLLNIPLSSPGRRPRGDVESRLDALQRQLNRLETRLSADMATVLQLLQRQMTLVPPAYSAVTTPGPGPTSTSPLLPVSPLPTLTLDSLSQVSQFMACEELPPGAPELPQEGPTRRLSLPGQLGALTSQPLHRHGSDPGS

D(2) dopamine receptor = D(2) dopamine receptor (Homo sapiens, UniProt P14416); experiment: Binding affinity to human D2 receptor
Chain of D(2) dopamine receptor (P14416 whole entry): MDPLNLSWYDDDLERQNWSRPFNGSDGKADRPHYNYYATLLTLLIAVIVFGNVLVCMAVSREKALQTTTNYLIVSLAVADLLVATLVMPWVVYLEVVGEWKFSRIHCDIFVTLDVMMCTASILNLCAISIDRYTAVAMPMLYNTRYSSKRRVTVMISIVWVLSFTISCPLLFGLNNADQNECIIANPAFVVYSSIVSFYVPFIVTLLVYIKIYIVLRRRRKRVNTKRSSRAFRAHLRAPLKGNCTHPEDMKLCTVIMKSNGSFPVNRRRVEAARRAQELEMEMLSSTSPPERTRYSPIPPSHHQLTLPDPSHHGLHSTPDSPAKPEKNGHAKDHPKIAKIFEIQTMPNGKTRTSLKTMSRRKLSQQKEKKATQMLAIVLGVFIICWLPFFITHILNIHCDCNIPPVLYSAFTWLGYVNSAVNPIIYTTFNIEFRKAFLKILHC

[3] = target: T2, 5-hydroxytryptamine receptor 2A (Homo sapiens, UniProt P28223); experiment: Binding affinity to human 5HT2A
T2 sequence (P28223 whole entry): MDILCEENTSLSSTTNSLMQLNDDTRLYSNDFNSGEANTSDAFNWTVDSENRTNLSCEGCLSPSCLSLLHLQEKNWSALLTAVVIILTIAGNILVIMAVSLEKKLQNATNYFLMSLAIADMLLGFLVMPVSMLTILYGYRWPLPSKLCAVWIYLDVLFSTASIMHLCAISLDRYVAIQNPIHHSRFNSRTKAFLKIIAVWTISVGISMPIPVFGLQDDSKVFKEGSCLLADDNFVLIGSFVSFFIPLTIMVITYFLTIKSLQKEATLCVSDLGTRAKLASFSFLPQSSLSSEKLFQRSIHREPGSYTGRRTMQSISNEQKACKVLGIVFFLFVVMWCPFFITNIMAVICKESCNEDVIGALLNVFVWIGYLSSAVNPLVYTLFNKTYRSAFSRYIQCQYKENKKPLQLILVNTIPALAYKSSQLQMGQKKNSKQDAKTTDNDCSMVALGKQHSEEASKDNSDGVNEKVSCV

[4] = target: T2, 5-hydroxytryptamine receptor 2A; experiment: Antagonist activity against human 5HT2A transfected in CHO cells by aurora beta lactamase reporter gene assay; type: functional, cell-based

| SMILES | Ki [1] [nM] | Ki (D(2) dopamine receptor) [nM] | Ki [3] [nM] | IC50 [4] [nM] | Ki [2] [nM] |
| --- | --- | --- | --- | --- | --- |
| O=S(=O)(c1cccc2ccccc12)N1CCC(CCc2ccc(F)cc2F)CC1 | 96 | > 1000 | 1.7 |  | > 9000 |
| O=S(=O)(c1ccc(F)cc1)N1CCC(F)(CCc2ccc(F)cc2F)CC1 | 806 | > 1000 | 24 |  | > 9000 |
| N#Cc1c[nH]c2c(C(=O)N3CCN(CCc4ccc(F)cc4F)CC3)cccc12 | 557 | > 1000 | 0.87 |  | 1270 |
| O=C(c1ccccc1F)N1CCC(CCc2ccc(F)cc2F)CC1 | 110 | > 1000 |  |  | > 9000 |
| O=S(=O)(c1ccc(F)cc1)N1CC=C(CCc2ccc(F)cc2F)CC1 | 449 | > 1000 | 22 |  | > 9000 |
| O=S(=O)(c1ccc(F)cc1)N1CCC(CCc2ccc(F)cc2F)CC1 | 2030 | > 1000 | 52 |  | > 9000 |
| O=S(=O)(c1cccc2cccnc12)N1CCC(CCc2ccc(F)cc2F)CC1 | 184 | > 1000 | 2.1 |  | > 9000 |

Now from value to molecule, other results behind:

| Ki [1] [nM] | Ki (D(2) dopamine receptor) [nM] | Ki [3] [nM] | IC50 [4] [nM] | SMILES | Ki [2] [nM] |
| --- | --- | --- | --- | --- | --- |
| 70 | > 1000 | 8.1 |  | N#Cc1ccccc1S(=O)(=O)N1CCC(CCc2ccc(F)cc2F)CC1 | > 9000 |
| 28 | > 1000 | 2.9 |  | O=C(c1cccc2cccnc12)N1CCC(CCc2ccc(F)cc2F)CC1 | > 9000 |
| 3780 | > 1000 | 4.4 |  | O=S(=O)(c1ccc(F)cc1)N1CCN(CCc2ccc(F)cc2F)CC1 | 4870 |
| 239 | > 1000 | 9.9 |  | O=S(=O)(c1ccccc1F)N1CCC(CCc2ccc(F)cc2F)CC1 | > 9000 |
| 404 | > 1000 | 6.1 |  | O=S(=O)(c1ccccc1Cl)N1CCC(CCc2ccc(F)cc2F)CC1 | > 9000 |
| > 4000 | > 1000 | 190 |  | O=S(=O)(c1ccc(F)cc1)N1CCC(O)(CCc2ccc(F)cc2F)CC1 | > 9000 |
| 997 | > 1000 | 14 | 319 | O=S(=O)(c1cccc(F)c1)N1CCC(CCc2ccc(F)cc2F)CC1 | > 9000 |
